The record followed here is ChEMBL document CHEMBL1201862, “PubChem BioAssay data set” (2004).

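48-hour exposure; five concentrations; linearly interpolated endpoints. At the GI50, growth is halved.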 Active and inactive are the calls of the source. No stated cut-off is given here; in the data, active = GI50 up to about 1.1 µM and inactive = higher.

Test systems include A498; ACHN; CAKI-1; HCC 2998; HCT-116; HCT-15; HT-29; IGROV-1; KM12; NCI-H23; NCI/ADR-RES; OVCAR-8; PC-3; RXF 393; SF-268; SF-295; SK-MEL-5; SW-620; K562; MDA-MB-231.
Test in all cases: DTP human tumour cell line panel, 48 h

Take `O=[N+]([O-])c1ccc2nc(-c3ccccn3)c(-c3ccccn3)nc2c1`: the GI50 is > 100 µM (inactive) with A498; 80 µM (inactive) with ACHN; > 100 µM (inactive) with CAKI-1; > 100 µM (inactive) in the experiment on HCC 2998; 38.9 µM (inactive) with HCT-116; 43 µM in the experiment on HCT-15. Besides, the GI50 is 40.5 µM (inactive) with HT-29; 94.6 µM (inactive) in the experiment with IGROV-1; > 100 µM (inactive) in the experiment with KM12; > 100 µM (inactive) with NCI-H23; > 100 µM (inactive) in the experiment with NCI/ADR-RES; 94 µM (inactive) with OVCAR-8. The GI50 with PC-3 is 38.5 µM (inactive); in the experiment on RXF 393, 86.5 µM (inactive); in the experiment on SF-268, > 100 µM (inactive); in the experiment on SF-295 it was 96.8 µM (inactive); with SK-MEL-5, 24.4 µM (inactive); in the experiment on SW-620, 41.9 µM (inactive).

As for `CCCCc1ccc(-n2sc3ncc(-c4ccccc4)cc3c2=O)cc1`, the GI50 is > 100 µM (inactive) in the experiment with A498; > 100 µM (inactive) with ACHN; 64.3 µM (inactive) in the experiment on CAKI-1; > 100 µM (inactive) with HCC 2998; > 100 µM (inactive) in the experiment on HCT-116; greater than 100 µM in the experiment with HCT-15. For the same compound, the GI50 was > 100 µM (inactive) in the experiment with IGROV-1; > 100 µM (inactive) in the experiment with K562; > 100 µM (inactive) in the experiment on KM12; > 100 µM (inactive) in the experiment with NCI-H23; > 100 µM (inactive) in the experiment with NCI/ADR-RES; 43.2 µM (inactive) in the experiment with OVCAR-8. Besides, the GI50 with PC-3, in the experiment with RXF 393, with SF-295, in the experiment with SK-MEL-5 and in the experiment on SW-620 was > 100 µM (inactive) each time.

For `Cc1ccc2c(c1C)CC1(Cc3c(C)ccc(C)c3C1=O)C2=O` (configuration not stated), the GI50 in the experiment with A498 was > 100 µM (inactive); with ACHN, > 100 µM (inactive); with CAKI-1, > 100 µM (inactive); in the experiment with HCC 2998 it was > 100 µM (inactive); in the experiment on HCT-116, > 100 µM (inactive); in the experiment on HCT-15 it was greater than 100 µM. Besides, the GI50 with HT-29, in the experiment on IGROV-1, in the experiment with K562, in the experiment on KM12, with MDA-MB-231 and in the experiment on NCI-H23 was > 100 µM (inactive) throughout. In addition, the GI50 with NCI/ADR-RES, in the experiment on OVCAR-8, in the experiment with RXF 393, in the experiment with SF-268, in the experiment with SF-295 and in the experiment with SK-MEL-5 was > 100 µM (inactive) each time. The GI50 with SW-620 was > 100 µM (inactive).

In the case of `NC1CNC(=O)c2cscc21` (configuration not stated), the GI50 in the experiment on A498 is > 100 µM (inactive); with ACHN it was > 100 µM (inactive); with CAKI-1, > 100 µM (inactive); in the experiment with HCC 2998, > 100 µM (inactive); in the experiment with HCT-116 it was > 100 µM (inactive); in the experiment on HCT-15 it was greater than 100 µM. For the same compound, the GI50 with HT-29 was > 100 µM (inactive); in the experiment with IGROV-1, > 100 µM (inactive); with K562 it was > 100 µM (inactive); in the experiment on KM12, > 100 µM (inactive); in the experiment on NCI-H23, > 100 µM (inactive); with NCI/ADR-RES, 3.01 µM (inactive). In addition, the GI50 in the experiment on PC-3 was 53.2 µM (inactive); in the experiment on RXF 393, > 100 µM (inactive); with SF-268, > 100 µM (inactive); in the experiment on SF-295, > 100 µM (inactive); in the experiment with SK-MEL-5, > 100 µM (inactive); in the experiment on SW-620, > 100 µM (inactive).

For `O=C(O)c1ccc(NC(NC(=O)C(C(F)(F)F)C(F)(F)F)(C(F)(F)F)C(F)(F)F)cc1`, the GI50 in the experiment on A498 was > 100 µM (inactive); in the experiment with ACHN, > 100 µM (inactive); in the experiment with CAKI-1, > 100 µM (inactive); with HCC 2998, > 100 µM (inactive); in the experiment with HCT-116 it was > 100 µM (inactive); with HCT-15 it was greater than 100 µM. The GI50 in the experiment with HT-29, in the experiment with IGROV-1, in the experiment with K562, with NCI-H23, in the experiment with NCI/ADR-RES and in the experiment on OVCAR-8 was > 100 µM (inactive) in each case. Further, the GI50 with PC-3, with RXF 393, with SF-268, in the experiment with SK-MEL-5 and with SW-620 was > 100 µM (inactive) throughout.

In the case of `Cc1ccc(OC(=O)N2C/C(=C\c3ccccc3)C(=O)/C(=C/c3ccccc3)C2)cc1`, the GI50 with A498 is > 66.5 µM (inactive); in the experiment on ACHN, 26.7 µM (inactive); in the experiment on CAKI-1, 49.9 µM (inactive); with HCC 2998, 10 µM (inactive); in the experiment with HCT-116 it was 2.13 µM (inactive); in the experiment with HCT-15, 26.3 µM. Further, the GI50 is 4.93 µM (inactive) in the experiment on HT-29; 40.7 µM (inactive) in the experiment with IGROV-1; 3.94 µM (inactive) with K562; 16.2 µM (inactive) in the experiment with KM12; 26.7 µM (inactive) with MDA-MB-231; 26.4 µM (inactive) in the experiment with NCI-H23. The GI50 in the experiment on OVCAR-8 is 19.6 µM (inactive); with PC-3, 27.6 µM (inactive); with RXF 393, 20.1 µM (inactive); with SF-268, 34.1 µM (inactive); in the experiment with SF-295 it was 18.7 µM (inactive); with SK-MEL-5, 20.6 µM (inactive). Besides, in the experiment with SW-620, the GI50 is 4.47 µM (inactive).

Take `Fc1ccc(-c2sc(-c3ccsc3)cc2Cc2ccsc2)cc1`: the GI50 was > 10 µM (inactive) in the experiment on CAKI-1; > 10 µM (inactive) in the experiment with HCC 2998; greater than 10 µM in the experiment with HCT-15; > 10 µM (inactive) in the experiment on HT-29; > 10 µM (inactive) with IGROV-1; > 10 µM (inactive) in the experiment with K562. For the same compound, the GI50 in the experiment with KM12, in the experiment on MDA-MB-231, in the experiment with NCI-H23, in the experiment with OVCAR-8, in the experiment on PC-3 and in the experiment with RXF 393 was > 10 µM (inactive) each time. The GI50 in the experiment on SF-268, in the experiment with SF-295, in the experiment on SK-MEL-5 and with SW-620 was > 10 µM (inactive) each time.

For the compound `C=C1C(=O)OC2C3C(=C)[C@@H](OC(C)=O)CC3C(C)=CC(OC(=O)C(C)(OC(C)=O)C(C)OC(C)=O)[C@@H]12` (some centres not stated), the GI50 is 13.7 µM (inactive) with ACHN; 10.6 µM (inactive) in the experiment with CAKI-1; 18.6 µM (inactive) in the experiment on HCC 2998; 11 µM (inactive) in the experiment with HCT-116; 12.8 µM with HCT-15; 14.4 µM (inactive) in the experiment with HT-29. Further, the GI50 with IGROV-1 is 18.5 µM (inactive); with K562, 7.29 µM (inactive); with KM12, 16.8 µM (inactive); in the experiment on MDA-MB-231, 18.5 µM (inactive); with NCI-H23 it was 18.6 µM (inactive); in the experiment on OVCAR-8, 30.1 µM (inactive). Also, the GI50 with PC-3 was 17.3 µM (inactive); with RXF 393, 12.3 µM (inactive); with SF-268, 21.7 µM (inactive); in the experiment on SF-295 it was 61.2 µM (inactive); with SK-MEL-5, 12.6 µM (inactive); with SW-620, 9.33 µM (inactive).

One may read the GI50 as the concentration giving 50% growth inhibition.
